# Tests used:
# [1] = tested on: Plasmodium falciparum 3D7 (chloroquine sensitive strain); test: Anti malarial activity in vitro on Plasmodium falciparum at erythrocyte stage; assay type: cell-based; details: compound in crude form
# Description: In a preferred embodiment, the compound NCLite-M1 was tested for anti-malarial activity against a known parasite Plasmodium falciprum 3D7 was used, which is chloroquine sensitive strain and the results are tabulated herein.
# This study was performed in vitro on Plasmodium falciparum at erythrocyte stage. The test protocol for testing antimalarial activity is from R. E. Desjardins, C. J. Canfield, J. D. Haynes and J. D. Chulay Antimicrob. Agents Chemother. 1979, 16, 710.
# A known parasite 3D7 was used, which is Chloroquine sensitive strain. 2 mg of the compound NCLite-M1 which has a molecular weight of 326.35, was dissolved in 10 mL of EtOH and used as a stock. […] Further studies using highly pure compound and its soluble salts are planned.
melting point,Structure (SMILES),also measured
194 to 196 °C,"N#Cc1ccc2[nH]c(-c3ccccc3)cc2c1 [Table 2, entry 6, 2-phenyl-1H-indole-5-carbonitrile]",
178 to 180 °C,"Cc1nc2cc(Cl)ccc2c2ccn(S(=O)(=O)c3ccccc3)c12 [Table 2, entry 2, 7-chloro-4-methyl-3-(phenylsulfonyl)-3H-pyrrolo[2,3-c]quinoline]",
143 to 145 °C,"Cc1nc2ccccc2c2ccn(S(=O)(=O)c3ccccc3)c12 [compound 3, 4-Methyl-3-(phenylsulfonyl)-3H-pyrrolo[2,3-c]quinoline]",
229 to 231 °C,Nc1ncnc2c1ncn2Cc1nc2ccccc2c2cc[nH]c12 [Aplidiopsamine A],
,"O=c1c2ccccc2ncn1Cc1nc2ccccc2c2cc[nH]c12 [NCLite-M1, 3-((3H-pyrrolo[2,3-c]quinolin-4-yl)methyl)quinazolin-4(3H)-one]","lowest concentration at which the compound is active ([1]; P. falciparum 3D7): 2 µmol; inhibition at 25 µM ([1]; Plasmodium falciparum, concentration 25 μM, P. falciparum 3D7, erythrocyte stage, read-out: % inhibition by NCLite-M1): 19.5%; inhibition at 50 µM ([1]; Plasmodium falciparum, concentration 50 μM, P. falciparum 3D7, erythrocyte stage, read-out: % inhibition by NCLite-M1): 77.2%; inhibition at 75 µM ([1]; Plasmodium falciparum, concentration 75 μM, P. falciparum 3D7, erythrocyte stage, read-out: % inhibition by NCLite-M1): 89.4%; % inhibition by NCLite-M1 ([1]; concentration 2-5 μM, P. falciparum 3D7, erythrocyte stage): 17.6%"
233 to 235 °C,"N#Cc1ccc2nc(-c3ccccc3)c3ccccc3c2c1 [Table 2, entry 5, 6-phenylphenanthridine-2-carbonitrile]",

# From US9518051B2, “Pyrroloquinoline alkaloids as antimalarial agents and process for the preparation thereof” (Council of Scientific & Industrial Research, priority 2012, dated 2016)
